The text below walks through data of US7659271B2, “Pyrimidine compound having dibenzylamine structure and medicament comprising the same” (Kowa Company, Ltd., priority 2007, dated 2010).

Marks after values point to notes of the source that are not given here.

One experiment deals with T1, CETP (Homo sapiens, UniProt P11597).
T1 construct: The CETP activity in this plasma was measured with Cholesteryl Ester Transfer Protein Activity kit; from tissue; host or cells: human plasma
T1 sequence (P11597 18-493): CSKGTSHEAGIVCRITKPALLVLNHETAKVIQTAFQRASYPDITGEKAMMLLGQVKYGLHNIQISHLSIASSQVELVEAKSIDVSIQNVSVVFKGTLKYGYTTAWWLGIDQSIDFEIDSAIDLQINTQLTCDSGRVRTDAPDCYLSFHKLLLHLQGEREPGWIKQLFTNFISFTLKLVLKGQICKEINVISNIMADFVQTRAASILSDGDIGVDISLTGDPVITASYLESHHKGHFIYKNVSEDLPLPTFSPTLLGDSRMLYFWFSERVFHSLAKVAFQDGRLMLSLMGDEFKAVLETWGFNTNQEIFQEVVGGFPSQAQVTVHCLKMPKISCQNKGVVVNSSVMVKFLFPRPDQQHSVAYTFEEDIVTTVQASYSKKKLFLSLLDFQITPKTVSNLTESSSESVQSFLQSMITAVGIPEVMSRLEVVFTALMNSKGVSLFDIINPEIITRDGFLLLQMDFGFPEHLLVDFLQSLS
As to the kind of experiment: Measurement of CETP inhibitory action in human plasma. Format: biochemical. Particulars: incubated with compound 37° C. 4 hours, Roar Biomedical CETP Activity kit, read-out: IC50 (concentration inhibiting the CETP activity by 50%). As for the experimental part:
A solution obtained by dissolving an exemplary compound in polyethylene glycol/N-methyl-2-pyrrolidone (vol/vol=1/1) was added to human plasma, and the mixture was incubated in an incubator at 37° C. for 4 hours. The CETP activity in this plasma was measured with Cholesteryl Ester Transfer Protein Activity kit (Roar Biomedical, catalog No.: RB-CETP). Specifically, to each well of a 96-well plate, 95 μL of a buffer (10 mM Tris, 150 mM NaCl, 2 mM EDTA, pH 7.4), 2 μL of Donor particle and 2 μL of Acceptor particle were added, 1 μL of the human plasma after the incubation was added to the mixture, and the mixture was incubated in an incubator at 37° C. for 2 hours. After completion of the incubation, fluorescence intensity (FLU) was measured with a fluorescence plate reader (excitation wavelength: 465 nm, emission wavelength: 535 nm). In accordance with the following equation 1, the CETP activity (% of control) was obtained for the compounds of the examples for two or more concentrations. CETP activity (% of control)=(Sample FLU−Blank FLU)×100/(Control FLU−Blank FLU) (Equation 1)
In the equation, the terms have the following meanings: […]
Blank FLU: Fluorescence intensity of sample not added with plasma
Control FLU: Fluorescence intensity of plasma not added with solution of compound
Sample FLU: Fluorescence intensity of plasma added with solution of compound
A value obtained by subtracting the value of the CETP activity from 100 was defined as the CETP inhibitory rate of each exemplary compound, and a concentration inhibiting the CETP activity by 50% (IC50) was calculated for each exemplary compound from the values of the CETP inhibitory rate at two or more concentrations.

The next experiment deals with normal hamsters. As to the kind of experiment: Measurement of blood HDL cholesterol increasing action in normal hamsters. Type of experiment: in vivo, male Syrian Hamsters. Particulars: for Average HDL cholesterol level ± SD: plasma 2 hours after administration on day 7, n = 5; for HDL cholesterol increasing ratio: relative to control group. The source says: N-{1-[3,5-Bis(trifluoromethyl)phenyl]ethyl}-N-({2-[(cyclopentylmethyl)(ethyl)amino]-5-(trifluoromethyl)phenyl}methyl)-5-[2-(methylsulfonyl)ethoxy]pyrimidin-2-amine (Example 3), or 4(S)-[(3,5-bis-trifluoromethylbenzyl)methoxycarbonylamino]-2(R)-ethyl-6-trifluoromethyl-3,4-dihydro-2H-quinoline-1-carboxylic acid ethyl ester (Torcetrapib) disclosed in International Patent Publication WO2000/17164 was suspended in a 5% Tween 80 solution (control vehicle), and then repeatedly administered to normal hamsters (male Syrian Hamsters) by oral administration once a day over 7 days by using a metal catheter. Two hours after the administration on day 7 of the administration, blood was collected, and plasma was obtained. Plasma lipoproteins were analyzed by automatic measurement using a HPLC system based on the postlabeling method according to the method described in J. Lipid. Res., 43, pp. 805-814. Specifically, 15 μL of a plasma sample was diluted 10 times with PBS containing 1 mM EDTA, and then injected in a volume of 80 μL into a gel filtration column (Superose 6 column, column size: 10×300 mm, GE Healthcare Bioscience) connected to a HPLC system (liquid feeding unit: Shimadzu LC-20A System, Shimadzu). Separation was performed by using PBS containing 1 mM EDTA as a running buffer at a flow rate of 0.5 mL/min and at a column temperature of 40° C. The eluate from the column was mixed with a cholesterol measurement reagent (Cholesterol E-Test Wako, Wako Pure Chemical Industries) at a flow rate of 0.25 mL/min, and the reaction was allowed in a reaction coil (0.5 mm×15 m) at 40° C. during the feeding. Cholesterols in the eluate from the reaction coil were detected at a wavelength of 600 nm. An area ratio of the HDL fraction relative to the total area of the obtained cholesterols was calculated, and HDL cholesterol level was calculated by multiplying the total cholesterol level measured beforehand using Cholesterol E Test Wako by the area ratio of the HDL fraction. Five normal hamsters grouped beforehand on the basis of the total plasma cholesterol level were used for each of the control group (control vehicle administration group) and the compound administration groups (groups administered with the compound of Example 3 at 10 mg/kg, 30 mg/kg and 100 mg/kg, and Torcetrapib at 10 mg/kg and 100 mg/kg).
The symbols * and *** used in FIG. 1 and Table 3 indicate presence of significant difference at a risk ratio lower than 5% (p<0.05) and a risk ratio lower than 0.1% (p<0.001), respectively, in a multi-group comparison test (Dunnett's multiple comparison test) performed between the control group and each compound administration group. Further, increasing ratios of HDL cholesterol level in each group relative to the control group were calculated as HDL cholesterol increasing ratios in accordance with the following equation 2, and indicated in terms of %. HDL cholesterol increasing ratio (%)=[(Average HDL cholesterol level of each compound administration group−Average HDL cholesterol level of control group)/Average HDL cholesterol level of control group]×100 (Equation 2)

[1] abbreviates: 10 mg/kg oral once a day over 7 days.
The mark [2] stands for this setting: 30 mg/kg oral once a day over 7 days.
Setting [3] is: 100 mg/kg oral once a day over 7 days.

For the molecule `CCN(CC1CCCC1)c1ccc(C(F)(F)F)cc1CN(c1ncc(OCCS(C)(=O)=O)cn1)C(C)c1cc(C(F)(F)F)cc(C(F)(F)F)c1` (centres unmarked) [Example 3, N-{1-[3,5-bis(trifluoromethyl)phenyl]ethyl}-N-({2-[(cyclopentylmethyl)(ethyl)amino]-5-(trifluoromethyl)phenyl}methyl)-5-[2-(methylsulfonyl)ethoxy]pyrimidin-2-amine], the IC50 at CETP is 0.03 µM. In addition, the “Average HDL cholesterol level ± SD” value in the experiment with normal hamsters (setting [1]) is 118.5 ± 7.6*** mg/dl; with normal hamsters (setting [2]) it was 124.4 ± 8.4*** mg/dl; with normal hamsters (setting [3]) it was 126.9 ± 13.2*** mg/dl. In addition, the “HDL cholesterol increasing ratio” value with normal hamsters (setting [1]) was determined as 37.1%; in the experiment with normal hamsters (setting [2]), 43.9%; with normal hamsters (setting [3]) it was 46.8%.

Regarding `CCOC(=O)N1c2ccc(C(F)(F)F)cc2[C@@H](N(Cc2cc(C(F)(F)F)cc(C(F)(F)F)c2)C(=O)OC)C[C@H]1CC` [Torcetrapib, 4(S)-[(3,5-bis-trifluoromethylbenzyl)methoxycarbonylamino]-2(R)-ethyl-6-trifluoromethyl-3,4-dihydro-2H-quinoline-1-carboxylic acid ethyl ester, reference compound], in the experiment on normal hamsters (setting [1]), the “Average HDL cholesterol level ± SD” value was 90.6 ± 7.7 mg/dL and the “HDL cholesterol increasing ratio” value amounted to 4.8%. Further, in the experiment on normal hamsters (setting [3]), the “Average HDL cholesterol level ± SD” value is listed as 113.0 ± 23.2* mg/dl and the “HDL cholesterol increasing ratio” value turned out to be 30.7%.
